Patent publication US20260250337A1, “HYBRID ANTIMICROBIAL PEPTIDES” (UNIVERSIDADE FEDERAL DO ABC, priority 2023, published 2026)
No end group written: not given here.

Tests used:
[1] = tested on: A. baumannii ATCC19606; assay: NPN uptake assay, outer membrane permeabilization; format: cell-based; settings: peptides at their MIC
Protocol: Method. Membrane permeabilization was assessed for two of the naturally occurring peptides (VmCT1 and temporin A) and two of the hybrids [VmCT1-temporin A (VT) and temporin A-VmCT1 (TV)] at their MIC by using the N-phenyl-1-naphthylamine (NPN) uptake assay as previously described^104, 105. Briefly, A. baumannii ATCC19606 cells were grown to an optical density at 600 nm (OD600) of 0.4, centrifuged (10,000 rpm at 4° C. to 10 minutes), washed, and resuspended in buffer (5 mmol L^−1 HEPES, 5 mmol L^−1 glucose, pH 7.4). Four μL of NPN solution (0.5 mmol L^−1; working concentration of 10 μmol L^−1, after dilutions) was added to 100 μL of the bacterial solution in 96-well plates. The background fluorescence was then determined at λex=350 nm and […]. The peptides resuspended in water (100 μL at a concentration of 1.2 μmol L^−1) were added to each 96-well plate. The fluorescence was determined as a function of time until no further increase in fluorescence was observed (45 min).

[2] = tested on: A. baumannii ATCC19606; assay: DiSC3(5) assay, cytoplasmic membrane depolarization; format: cell-based; settings: peptides at their MIC
Protocol: Method. The cytoplasmatic membrane depolarization activity of two of the naturally occurring peptides (VmCT1 and temporin A) and two of the hybrids (VT and TV) was determined at their MIC by performing the membrane potential-sensitive dye DiSC3(5), as reported previously^105, 106. A. baumannii ATCC19606 cells were grown at 37° C. with agitation to an optical density of 600 nm (OD600) of 0.5, centrifuged, washed twice with buffer (5 mmol L^−1 HEPES, 20 mmol L^−1 glucose, pH 7.2), and resuspended to an OD600 of 0.05 in the same buffer but containing 0.1 mol L^−1 KCl. Cells (100 μL) were incubated for 15 minutes with 20 nmol L^−1 of DiSC3(5) until a stable reduction in fluorescence was observed, indicating the incorporation of the DiSC3(5) into the bacterial membrane. After adding the peptides (100 μL solution at 1.2 μmol L^−1), membrane depolarization was determined by the change observed in the fluorescence emission intensity of the dye at λex=622 nm and […].

[3] = tested on: A. baumannii ATCC19606; assay: Skin abscess infection mouse model; format: in vivo, mice; settings: for anti-infective activity four days after the treatment, reduction of load of A. baumannii cells / anti-infective activity two days post-treatment: skin infection, peptides onto the abscess at their MIC; for anti-infective activity versus parent peptides: skin scarification mouse model
Protocol: Skin abscess infection mouse model. The anti-infective activity of the peptides VmCT1, temporin A, VT, and TV against A. baumannii ATCC19606 was evaluated as described by Torres et al.^82. Bacteria were grown in tryptic soy broth medium to an optical density of 0.5 at 600 nm. Cells were washed twice with sterile phosphate buffered saline (pH 7.4, 13,000 rpm for 1 min) and resuspended to a final concentration of 1×10^7 CFU/20 μL. To generate the skin infection, female CD-1 mice (6 weeks-old) were first anesthetized with isoflurane and their backs were shaved. A superficial linear abrasion was made with a needle on the shaved area to injure only the stratum corneum and the upper layer of the epidermis. An aliquot of 20 μL suspension containing 1×10^7 CFU of A. baumannii was then inoculated over the wound area with a pipette tip. The next day, the infected area was inoculated with the peptides (VmCT1, temporin A, VT, and TV), which were administered onto the abscess at their MIC. The animals were euthanized, and the scarified skin area removed 2- and 4-days post-infection. The excised area was homogenized using a bead beater for 20 min (25 Hz) and serially diluted for CFU quantification. Two independent experiments were carried out with 3 mice per group in each condition.

[4] = tested on: skin tissue; assay: Skin tissue histopathological analysis (H&E); format: in vivo, mice; settings: 24 h after infection and treatment
Protocol: Skin tissue histopathological analysis. […] The fur on the back of the mice was removed and the mice were infected and treated as described in the Skin abscess infection mouse model section. After 24 h, mice were euthanized for tissue collection. Samples were pre-fixed in individual cassettes, then transferred to a container filled with 70% EtOH for slicing and staining. Next, the samples were placed on glass slides for microscopy analysis. We collected the tissue from three mice per condition analyzed.

[5] = tested on: MCF-7 human breast cancer cells; assay: Anticancer activity, MTT assay; format: cell-based; settings: for MCF-7 4 h LD50 / MCF-7 24 h LD50: MTT
Protocol: The anticancer activity assays were performed using MCF-10A human breast epithelial cells and MCF-7 mammary cancer cells as previously described by Pedron et al. 86. Briefly, the day before treatment, the cells were incubated at 37° C. and 5% CO2 for 24 h. The cells were treated with peptides ranging from 12.5 to 100 μmol L^−1 (MCF10-A cells) and 0.8 to 100 μmol L^−1 (MCF-7 cells) for 4 h and 24 h at 37° C., and cell viability was measured using 3-(4,5-Dimethylthiazol-2-yl)-2,5-diphenyltetrazolium bromide (MTT) assays 87. Three independent replicates were performed in each case.

[6] = Resistance to degradation in fetal bovine serum; format: in vitro ADME; settings: for remaining at 0.5 h / remaining peptide, 30 min: 30 min; for remaining at 0.5 h: read-out: remaining peptide, 30 min
Protocol: The resistance to proteolytic degradation of the hybrid peptides was assessed by exposing them for 6 h to serum peptidases in a fetal bovine serum solution^68, 69 (FIG. 5a and Table S4). The peptide degradation kinetics were calculated by integrating the peak area of the peak in relation to the peptide at the beginning of the experiment (time=0) and comparing it to the integrated peak area relative to the peptides after exposure to the enzymes at time points: 0.5, 1, 2, 4, and 6 h (FIG. 5a and Table S4). […] However, AV was resistant to degradation against proteases, with almost 40% peptide content remaining after 4 h of exposure (FIG. 5a and Table S4). […] VP was almost entirely degraded after 30 min (22% of peptide remaining). […] D-amino acid substitutions have been used as alternatives to prevent the degradation of AMPs. For example, Qiu et. al. described a protonectin analog with a D-Lys residue in position 10 as an alternative to protonectin; this analog is not degraded and has higher antimicrobial activity against bacteria and fungi than the original peptide.
Methods. Stability assays were performed following the protocol described by Torres et al.^71. Briefly, a peptide solution was added to GIBCO fetal bovine serum diluted to 25% in water and kept at 37° C. The degradation kinetics were monitored by liquid chromatography and the percentage of peptide remaining was calculated by integrating the peptide peak area. The experiments were performed as three independent replicates, and aliquots were taken at 0, 0.5, 1, 2, 4, and 6 h.

[7] = bovine, fetal bovine serum, 25% in water, fetal bovine serum 25% in water, 37° C.
[8] = fetal bovine serum 25% in water, 37° C.

Substance | outer membrane permeabilization, NPN fluorescence [1] | cytoplasmic membrane depolarization, DiSC3(5) fluorescence [2] | anti-infective activity four days after the treatment, reduction of load of A. baumannii cells [3] | anti-infective activity two days post-treatment [3] | anti-infective activity versus parent peptides [3] | tissue morphology / toxicity, H&E staining [4] | MCF-7 4 h LD50 [5] | MCF-7 24 h LD50 [5] | concentration with activity against MCF-7 human breast cancer cells ([5]; incubation time not stated) | remaining at 0.5 h [6, 7] | remaining at 1 h ([6]; bovine, fetal bovine serum, 25% in water, fetal bovine serum 25% in water, 37° C., 1 h, read-out: remaining peptide, 1 h) | remaining at 2 h ([6]; bovine, fetal bovine serum, 25% in water, fetal bovine serum 25% in water, 37° C., 2 h, read-out: remaining peptide, 2 h) | remaining peptide, 30 min [6, 8] | remaining peptide, 1 h ([6]; fetal bovine serum 25% in water, 37° C., 1 h) | time of exposure after which totally degraded ([6]; fetal bovine serum)
FLGAIGNVLKSIL-NH2 [TV, Phe-Leu-Gly-Ala-Ile-Gly-Asn-Val-Leu-Lys-Ser-Ile-Leu] | increased fluorescence compared to the control | depolarized the cytoplasmic membrane | two orders of magnitude | increased anti-infective activity when compared to the parent peptides | more potent than that of either parent peptides | Neither TV nor VmCT1 changed the tissue's morphology | – | – | – | – | – | – | – | – | –
FLGALWNVAKSVF-NH2 [VmCT1, Phe-Leu-Gly-Ala-Len-Trp-Asu-Val-Ala-Lys-Ser-Val-Phe, reference compound] | increased fluorescence compared to the control | – | – | – | – | Neither TV nor VmCT1 changed the tissue's morphology | 50 µmol/L | 12.5 µmol/L | 50 µmol/L | ~20% | < 10% | < 10% | approximately 20% | less than 10% | –
FLPLIGRVLSGIL-NH2 [Temporin A, Phe-Leu-Pro-Leu-Ile-Gly-Arg-Val-Leu-Ser-Gly-Ile-Leu, reference compound] | increased fluorescence compared to the control | – | – | – | – | – | 50 µmol/L | 50 µmol/L | – | – | – | – | – | – | –
FLPLLWRVASGVF-NH2 [VT, Phe-Leu-Pro-Leu-Leu-Trp-Arg-Val-Ala-Ser-Gly-Val-Phe] | did not lead to increased fluorescence compared to the control | depolarized the cytoplasmic membrane | the same effect as the two parent peptides | increased anti-infective activity when compared to the parent peptides | more potent than that of either parent peptides | – | – | – | – | – | – | – | – | – | –
ILGAILNVLKSLG-NH2 [PV, Ile-Leu-Gly-Ala-Ile-Leu-Asn-Val-Leu-Lys-Ser-Leu-Gly] | – | – | – | – | – | – | – | – | – | ~90% | – | – | ~ 90% | – | 1 h
